PubChem BioAssay (NCI)
Where “and” joins values, the source holds several entries; their conditions need not be identical. Equal entries are not always repeated.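 Each compound was tested at five concentrations against cells in 96-well plates for 48 hours. Abbreviation: GI50, concentration required for 50% inhibition of growth. TGI: total growth inhibition.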

Assays:
Assay in all cases: NCI-60 cell line screen, 48 h
ACHN renal = test system: ACHN renal
A549 NSCLC = test system: A549 NSCLC
PC-3 prostate = test system: PC-3 prostate
HCC-2998 colon = test system: HCC-2998 colon
HS 578T breast = test system: HS 578T breast
DU-145 prostate = test system: DU-145 prostate
RPMI-8226 leukemia = test system: RPMI-8226 leukemia
IGROV1 ovarian = test system: IGROV1 ovarian
KM12 colon = test system: KM12 colon
NCI-H522 lung = test system: NCI-H522 lung

| Compound | TGI (ACHN renal) | GI50 (A549 NSCLC) | TGI (A549 NSCLC) | TGI (PC-3 prostate) | GI50 (HCC-2998 colon) | TGI (HCC-2998 colon) | TGI (HS 578T breast) | TGI (DU-145 prostate) | GI50 (RPMI-8226 leukemia) | TGI (RPMI-8226 leukemia) | GI50 (IGROV1 ovarian) | TGI (IGROV1 ovarian) | GI50 (KM12 colon) | TGI (KM12 colon) | GI50 (NCI-H522 lung) | TGI (NCI-H522 lung) | GI50 (ACHN renal) | GI50 (PC-3 prostate) | GI50 (HS 578T breast) | GI50 (DU-145 prostate) |
| --- | --- | --- | --- | --- | --- | --- | --- | --- | --- | --- | --- | --- | --- | --- | --- | --- | --- | --- | --- | --- |
| C=C(C)C(O)CCC1(C)C=Cc2c(c(C)cc3c2[nH]c2ccccc23)O1 (centres undefined) | 25 µM and 16 µM | 5.02 µM | 25 µM and 16.1 µM | 19.3 µM | 2.19 µM | 12.1 µM and 5 µM | 13.5 µM | 25.1 µM | 2960 nM | 25 µM and 8.01 µM | 8.33 µM | 25 µM and 22 µM | 2 µM | 12.5 µM and 4.32 µM | 3.29 µM | 11.3 µM and 9.34 µM | – | – | – | – |
| COc1ccc(-c2cc3c(c4cc(OC)ccc24)C(=O)OC3=O)cc1 | > 100 µM | – | > 100 µM | > 100 µM | – | > 100 µM | > 100 µM | > 100 µM | – | > 100 µM | – | > 100 µM | – | > 100 µM | – | > 100 µM | – | – | – | – |
| N#CC1(C#N)C2(c3ccccc3)OC(c3ccccc3)(c3cc4ccccc4cc32)C1(C#N)C#N | 28.5 µM | – | 33.9 µM | 32.9 µM | – | 33.8 µM | 72.2 µM | 28.5 µM | – | 5.34 µM | – | 31.2 µM | – | 23.7 µM | – | 8.43 µM | – | – | – | – |
| CCOC(=O)c1c(C)nc2c(c1N)CC(=O)N2Cc1ccc(OC)cc1 | > 100 µM | – | – | > 100 µM | > 100 µM | > 100 µM | > 100 µM | > 100 µM | > 100000 nM | > 100 µM | 80.3 µM | > 100 µM | > 100 µM | > 100 µM | > 100 µM | > 100 µM | 9.56 µM | > 100000 nM | 4.78 µM | > 100000 nM |
| N=C1C(c2nc3ccccc3s2)=C(O)CN1c1ccc(F)c(Cl)c1 | 57.8 µM | 11.2 µM | 62.2 µM | 30.8 µM | 61.7 µM | > 100 µM | 64.5 µM | > 100 µM | 18900 nM | > 100 µM | 19.4 µM | 58.3 µM | 73.9 µM | > 100 µM | 11.5 µM | 63.2 µM | 17.4 µM | 4040 nM | 22.9 µM | 36100 nM |
| C=CCOc1cc(NC(=S)c2ccoc2C)ccc1OC | > 100 µM | – | > 100 µM | > 100 µM | – | > 100 µM | > 100 µM | > 100 µM | – | > 100 µM | – | > 100 µM | – | > 100 µM | – | > 100 µM | – | – | – | – |
| CN(CCO)CC[C@H](CSc1ccccc1)Nc1ccc(S(=O)(=O)NC(=O)c2ccc(N3CCC([C@@H](O)c4ccccc4-c4ccc(Cl)cc4)CC3)cc2)cc1S(=O)(=O)C(F)(F)F | > 100 µM | > 100 µM | > 100 µM | 9.05 µM | 0.286 µM | 1.69 µM | 7.27 µM | > 100 µM | 160 nM | 2.94 µM | 2.6 µM | 6.63 µM | 3.18 µM | 13.8 µM | 4.4 µM | > 72.9 µM | > 27.8 µM | 2510 nM | 2.23 µM | 21000 nM |
| O=c1[nH]nnc2c1ncn2C1OC(CO)C(O)C1O (centres undefined) | > 100 µM | 75.7 µM | > 100 µM | > 100 µM | 4.12 µM | > 100 µM | > 100 µM | > 100 µM | 6710 nM | > 100 µM | 2.96 µM | > 100 µM | 11.8 µM | > 100 µM | 6.49 µM | > 100 µM | 1.8 µM | 2930 nM | > 100 µM | 1380 nM |
| O=C(Oc1cccc(F)c1OC(=O)c1cccc(O)c1)c1cccc(O)c1 | > 100 µM | 24.6 µM | > 100 µM | > 100 µM | 27.5 µM | 84.5 µM | > 100 µM | > 100 µM | 14500 nM | > 100 µM | 7.47 µM | > 100 µM | 23.1 µM | > 100 µM | 13.4 µM | 48.8 µM | 23.6 µM | 52900 nM | > 100 µM | 44700 nM |
| CCN1C(=O)N(CC)C2C1NN=c1s/c(=C\c3cccc(F)c3)c(=O)n12 (centres undefined) | > 100 µM | 0.282 µM | > 100 µM | > 100 µM | 0.223 µM | > 65.6 µM | > 100 µM | > 100 µM | 119 nM | 7.78 µM | 0.233 µM | > 100 µM | 0.0856 µM | > 100 µM | 0.228 µM | 33.2 µM | 0.196 µM | 185 nM | 0.0899 µM | 389 nM |
| CC(C)Cn1cnc2c(SCc3ccc(Cl)cc3Cl)nc(N)nc21 | 76.5 µM | – | > 100 µM | > 100 µM | – | 37.4 µM | > 100 µM | > 100 µM | – | 74.8 µM | – | > 100 µM | – | > 100 µM | – | 37 µM | – | – | – | – |
| COc1ccc(/C=C/C(=O)c2cc(OC)c(OC)c(OC)c2)cc1OCc1cn(Cc2ccc(F)cc2)nn1 | 16.7 µM | 2.63 µM | 9.13 µM | > 100 µM | 3.42 µM | 11.5 µM | > 100 µM | 6.64 µM | 1700 nM | 6.3 µM | 7.4 µM | > 100 µM | 3.14 µM | 18.2 µM | 1.74 µM | 5.22 µM | 3.53 µM | 2660 nM | 3.38 µM | 2590 nM |
| C=C1C(=O)O[C@H]2[C@H]1CC/C(COC(=O)CSCSCC(=O)OC/C1=C/CC[C@@]3(C)O[C@H]3[C@H]3OC(=O)C(=C)[C@@H]3CC1)=C\CC[C@@]1(C)O[C@@H]21 | 2.6 µM | 2.44 µM | 6.23 µM | 4.14 µM | 1.8 µM | 3.46 µM | 64.2 µM | 3.19 µM | 597 nM | 3.71 µM | 1.78 µM | 4.46 µM | 1.93 µM | 3.77 µM | 1.48 µM | 3.2 µM | 1.33 µM | 1860 nM | 4.88 µM | 1660 nM |
| C/C(=N\NC(=S)N1CC2CCC(CC2)C1)c1nccs1 | 8.99 µM | – | 8.87 µM | 16.6 µM | – | 15.9 µM | 38.6 µM | 12.5 µM | – | 20.8 µM | – | 15 µM | – | 17.6 µM | – | 14 µM | – | – | – | – |
| CN(/N=C/c1cccc2cccnc12)c1ccc([N+](=O)[O-])cc1[N+](=O)[O-] | 59.3 µM | – | > 100 µM | > 100 µM | – | > 100 µM | 34.8 µM | > 100 µM | – | > 100 µM | – | 70.8 µM | – | > 100 µM | – | 57.2 µM | – | – | – | – |
